pEC50: −log10 of the molar value.

This is an account of results in US20100273814A1, “((PHENYL)IMIDAZOLYL)METHYLHETEROARYL COMPOUNDS” (priority 2007, published 2010).

One assay concerns the target T1, alpha2A receptor (Homo sapiens, UniProt P08913).
T1 construct: expressed in transfected cells; host or cells: NIH-3T3 cells
T1 sequence (P08913 1-465): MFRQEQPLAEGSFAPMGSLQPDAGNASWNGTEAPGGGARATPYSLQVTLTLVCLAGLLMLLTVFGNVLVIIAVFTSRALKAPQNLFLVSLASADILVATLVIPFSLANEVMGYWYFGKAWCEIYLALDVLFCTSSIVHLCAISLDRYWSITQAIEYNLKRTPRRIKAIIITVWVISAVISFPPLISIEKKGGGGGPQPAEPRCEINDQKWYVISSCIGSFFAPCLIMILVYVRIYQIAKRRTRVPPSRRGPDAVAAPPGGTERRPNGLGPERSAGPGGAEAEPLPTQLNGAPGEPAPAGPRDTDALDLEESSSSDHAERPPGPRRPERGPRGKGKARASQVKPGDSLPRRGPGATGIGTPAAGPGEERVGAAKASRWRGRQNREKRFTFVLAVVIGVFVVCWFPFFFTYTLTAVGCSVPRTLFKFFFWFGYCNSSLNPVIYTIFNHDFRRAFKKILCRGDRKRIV
The assay can be described thus: Receptor Selection and Amplification Technology (RSAT) assay, alpha2A. Type of assay: cell-based. The note with it: RSAT, transfected NIH-3T3 cells; value outside brackets; read-out: Alpha 2A EC50 (potency). As to the method:
(§1) Receptor Selection and Amplification Technology (RSAT) Assay
(§2) The RSAT assay measures a receptor-mediated loss of contact inhibition that results in selective proliferation of receptor-containing cells in a mixed population of confluent cells. The increase in cell number is assessed with an appropriate transfected marker gene such as β-galactosidase, the activity of which can be easily measured in a 96-well format. Receptors that activate the G protein, Gq, elicit this response. Alpha2 receptors, which normally couple to Gi, activate the RSAT response when coexpressed with a hybrid Gq protein that has a Gi receptor recognition domain, called Gq/i5.
(§3) NIH-3T3 cells are plated at a density of 2×10^6 cells in 15 cm dishes and maintained in Dulbecco's modified Eagle's medium supplemented with 10% calf serum. One day later, cells are cotransfected by calcium phosphate precipitation with mammalian expression plasmids encoding p-SV-β-galactosidase (5-10 μg), receptor (1-2 μg) and G protein (1-2 μg). 40 μg salmon sperm DNA may also be included in the transfection mixture. Fresh media is added on the following day and 1-2 days later, cells are harvested and frozen in 50 assay aliquots. Cells are thawed and […] added to 100 aliquots of various concentrations of drugs in triplicate in 96-well dishes. Incubations continue 72-96 hr at 37° C. After washing with phosphate-buffered saline, β-galactosidase enzyme activity is determined by adding 200 μl of the chromogenic substrate (consisting of 3.5 mM o-nitrophenyl-β-D-galactopyranoside and 0.5% nonidet P-40 in phosphate buffered saline), incubating overnight at 30° C. and measuring optical density at 420 nm. The absorbance is a measure of enzyme activity, which depends on cell number and reflects a receptor-mediated cell proliferation. The efficacy or intrinsic activity is calculated as a ratio of the maximal effect of the drug to the maximal effect of a standard full agonist for each receptor subtype. Brimonidine, also called UK14304, the chemical structure of which is shown below, is used as the standard agonist for the alpha2A, alpha2B and alpha2C receptors. The EC50 is the concentration at which the drug effect is half of its maximal effect.
(§4) EC50 values are nanomolar. ND stands for “not determinable” at concentrations less than 10 micromolar. IA stands for “intrinsic activity.”
One may read the pEC50 as the EC50 on a negative log10 scale, so that one unit is a factor of ten. As to `Fc1c(Cl)cccc1C(c1cccnc1)c1cnc[nH]1` (stereo not drawn) [3-((3-chloro-2-fluorophenyl)(1H-imidazol-5-yl)methyl)pyridine], the negative logarithm of the EC50 (pEC50) was < 5.00.
`Cc1c(Cl)cccc1C(c1ccccn1)c1c[nH]cn1` (stereo not drawn): the pEC50 is < 5.00.
Still for that read-out and setting: with `Cc1ccccc1C(c1cccnc1)c1c[nH]cn1` (stereo not drawn) [3-((2-methylphenyl)(1H-imidazol-5-yl)methyl)pyridine] the figure was < 5.00; with `Cc1ccccc1C(c1ccccn1)c1c[nH]cn1` (stereo not drawn) [2-((2-methylphenyl)(1H-imidazol-5-yl)methyl)pyridine], < 5.00.
The same measure, in the same setting: as for `Cc1c(Cl)cccc1C(c1ccncc1)c1c[nH]cn1` (stereo not drawn) [4-((3-chloro-2-methylphenyl)(1H-imidazol-5-yl)methyl)pyridine], the figure is < 5.00; as for `Fc1cccc(C(c2cccnc2)c2c[nH]cn2)c1` (stereo not drawn) [3-((3-fluorophenyl)(1H-imidazol-5-yl)methyl)pyridine], < 5.00; as for `Fc1cccc(C(c2ccccn2)c2c[nH]cn2)c1` (stereo not drawn) [2-((3-fluorophenyl)(1H-imidazol-5-yl)methyl)pyridine], < 5.00.

Still in this assay, the particulars now being: RSAT; ratio of maximal effect to that of standard full agonist brimonidine (UK14304); value in brackets.
As to `Fc1c(Cl)cccc1C(c1cccnc1)c1cnc[nH]1` (stereo not drawn) [3-((3-chloro-2-fluorophenyl)(1H-imidazol-5-yl)methyl)pyridine], the “Alpha 2A intrinsic activity (efficacy)” value was determined as 0.28.
On the same count and under the same terms, as for `Cc1c(Cl)cccc1C(c1ccccn1)c1c[nH]cn1` (stereo not drawn), the figure is 0.12; as for `Cc1ccccc1C(c1cccnc1)c1c[nH]cn1` (stereo not drawn) [3-((2-methylphenyl)(1H-imidazol-5-yl)methyl)pyridine], 0.06.
On the same count and under the same terms, with `Cc1ccccc1C(c1ccccn1)c1c[nH]cn1` (stereo not drawn) [2-((2-methylphenyl)(1H-imidazol-5-yl)methyl)pyridine] the figure was 0.03; with `Cc1c(Cl)cccc1C(c1ccncc1)c1c[nH]cn1` (stereo not drawn) [4-((3-chloro-2-methylphenyl)(1H-imidazol-5-yl)methyl)pyridine], 0.11.
Regarding `Fc1cccc(C(c2cccnc2)c2c[nH]cn2)c1` (stereo not drawn) [3-((3-fluorophenyl)(1H-imidazol-5-yl)methyl)pyridine], the “Alpha 2A intrinsic activity (efficacy)” value is 0.05.
On the same count and under the same terms, as for `Fc1cccc(C(c2ccccn2)c2c[nH]cn2)c1` (stereo not drawn) [2-((3-fluorophenyl)(1H-imidazol-5-yl)methyl)pyridine], the figure is 0.14.

The next assay addresses T2, alpha2B receptor (Homo sapiens, UniProt P18089).
T2 construct: expressed in transfected cells; host or cells: NIH-3T3 cells
T2 sequence (P18089 1-450): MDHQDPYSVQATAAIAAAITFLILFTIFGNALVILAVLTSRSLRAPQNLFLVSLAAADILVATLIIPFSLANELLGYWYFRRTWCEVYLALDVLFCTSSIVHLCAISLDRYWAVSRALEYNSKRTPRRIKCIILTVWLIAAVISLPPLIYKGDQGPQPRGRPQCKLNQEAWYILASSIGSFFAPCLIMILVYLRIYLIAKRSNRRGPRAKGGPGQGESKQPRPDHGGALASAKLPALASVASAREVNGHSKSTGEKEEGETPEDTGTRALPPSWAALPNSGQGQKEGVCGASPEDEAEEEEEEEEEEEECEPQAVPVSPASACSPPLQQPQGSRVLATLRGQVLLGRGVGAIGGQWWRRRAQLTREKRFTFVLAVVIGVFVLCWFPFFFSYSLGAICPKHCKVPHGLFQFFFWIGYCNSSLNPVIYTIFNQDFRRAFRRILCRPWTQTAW
The assay can be described thus: Receptor Selection and Amplification Technology (RSAT) assay, alpha2B. Type of assay: cell-based. To be noted: RSAT, transfected NIH-3T3 cells; value outside brackets; read-out: Alpha 2B EC50 (potency). As to the method: as §1, §2, §3, §4
As for `Fc1c(Cl)cccc1C(c1cccnc1)c1cnc[nH]1` (stereo not drawn) [3-((3-chloro-2-fluorophenyl)(1H-imidazol-5-yl)methyl)pyridine], the pEC50 is 8.28.
The same measure, in the same setting: as for `Cc1c(Cl)cccc1C(c1ccccn1)c1c[nH]cn1` (stereo not drawn), the figure is 8.11; as for `Cc1ccccc1C(c1cccnc1)c1c[nH]cn1` (stereo not drawn) [3-((2-methylphenyl)(1H-imidazol-5-yl)methyl)pyridine], 6.59.
On the same count and under the same terms, as for `Cc1ccccc1C(c1ccccn1)c1c[nH]cn1` (stereo not drawn) [2-((2-methylphenyl)(1H-imidazol-5-yl)methyl)pyridine], the figure is 6.75; as for `Cc1c(Cl)cccc1C(c1ccncc1)c1c[nH]cn1` (stereo not drawn) [4-((3-chloro-2-methylphenyl)(1H-imidazol-5-yl)methyl)pyridine], 7.99.
`Fc1cccc(C(c2cccnc2)c2c[nH]cn2)c1` (stereo not drawn) [3-((3-fluorophenyl)(1H-imidazol-5-yl)methyl)pyridine]: the pEC50 was 6.65.
For the compound `Fc1cccc(C(c2ccccn2)c2c[nH]cn2)c1` (stereo not drawn) [2-((3-fluorophenyl)(1H-imidazol-5-yl)methyl)pyridine], the pEC50 is 6.56.

The same assay, now with this note: RSAT; ratio of maximal effect to that of standard full agonist brimonidine (UK14304); value in brackets.
In the case of `Fc1c(Cl)cccc1C(c1cccnc1)c1cnc[nH]1` (stereo not drawn) [3-((3-chloro-2-fluorophenyl)(1H-imidazol-5-yl)methyl)pyridine], the “Alpha 2B intrinsic activity (efficacy)” value is reported as 1.34.
With `Cc1c(Cl)cccc1C(c1ccccn1)c1c[nH]cn1` (stereo not drawn), the “Alpha 2B intrinsic activity (efficacy)” value was 1.39.
The same measure, in the same setting: as for `Cc1ccccc1C(c1cccnc1)c1c[nH]cn1` (stereo not drawn) [3-((2-methylphenyl)(1H-imidazol-5-yl)methyl)pyridine], the figure is 0.61.
Still for that read-out and setting: with `Cc1ccccc1C(c1ccccn1)c1c[nH]cn1` (stereo not drawn) [2-((2-methylphenyl)(1H-imidazol-5-yl)methyl)pyridine] the figure was 0.92; with `Cc1c(Cl)cccc1C(c1ccncc1)c1c[nH]cn1` (stereo not drawn) [4-((3-chloro-2-methylphenyl)(1H-imidazol-5-yl)methyl)pyridine], 1.10; with `Fc1cccc(C(c2cccnc2)c2c[nH]cn2)c1` (stereo not drawn) [3-((3-fluorophenyl)(1H-imidazol-5-yl)methyl)pyridine], 1.01.
Regarding `Fc1cccc(C(c2ccccn2)c2c[nH]cn2)c1` (stereo not drawn) [2-((3-fluorophenyl)(1H-imidazol-5-yl)methyl)pyridine], the “Alpha 2B intrinsic activity (efficacy)” value is recorded as 0.64.

The target in the next assay is T3, alpha2C receptor (Homo sapiens, UniProt P18825).
T3 construct: expressed in transfected cells; host or cells: NIH-3T3 cells
T3 sequence (P18825 1-462): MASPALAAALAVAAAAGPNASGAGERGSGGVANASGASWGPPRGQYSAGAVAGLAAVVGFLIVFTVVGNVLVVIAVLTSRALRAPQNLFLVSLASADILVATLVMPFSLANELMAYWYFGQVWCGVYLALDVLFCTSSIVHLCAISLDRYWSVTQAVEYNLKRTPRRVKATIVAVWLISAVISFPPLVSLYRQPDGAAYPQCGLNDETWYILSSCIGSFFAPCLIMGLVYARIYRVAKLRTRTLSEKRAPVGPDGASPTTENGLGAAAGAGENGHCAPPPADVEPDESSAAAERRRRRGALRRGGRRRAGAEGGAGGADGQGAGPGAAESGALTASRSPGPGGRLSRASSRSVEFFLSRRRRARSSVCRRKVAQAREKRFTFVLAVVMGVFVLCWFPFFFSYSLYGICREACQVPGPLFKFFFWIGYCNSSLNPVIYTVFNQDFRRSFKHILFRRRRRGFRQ
The assay can be described thus: Receptor Selection and Amplification Technology (RSAT) assay, alpha2C. To be noted: RSAT, transfected NIH-3T3 cells; value outside brackets; read-out: Alpha 2C EC50 (potency). Type of assay: cell-based. As to the method: as §1, §2, §3, §4
Take `Fc1c(Cl)cccc1C(c1cccnc1)c1cnc[nH]1` (stereo not drawn) [3-((3-chloro-2-fluorophenyl)(1H-imidazol-5-yl)methyl)pyridine]: the pEC50 was 7.19.
Same read-out and setting: as for `Cc1c(Cl)cccc1C(c1ccccn1)c1c[nH]cn1` (stereo not drawn), the figure is 6.31; as for `Cc1ccccc1C(c1cccnc1)c1c[nH]cn1` (stereo not drawn) [3-((2-methylphenyl)(1H-imidazol-5-yl)methyl)pyridine], < 5.00; as for `Cc1ccccc1C(c1ccccn1)c1c[nH]cn1` (stereo not drawn) [2-((2-methylphenyl)(1H-imidazol-5-yl)methyl)pyridine], 6.67.
Still for that read-out and setting: with `Cc1c(Cl)cccc1C(c1ccncc1)c1c[nH]cn1` (stereo not drawn) [4-((3-chloro-2-methylphenyl)(1H-imidazol-5-yl)methyl)pyridine] the figure was 7.08.
Same read-out and setting: with `Fc1cccc(C(c2cccnc2)c2c[nH]cn2)c1` (stereo not drawn) [3-((3-fluorophenyl)(1H-imidazol-5-yl)methyl)pyridine] the figure was 5.44.
`Fc1cccc(C(c2ccccn2)c2c[nH]cn2)c1` (stereo not drawn) [2-((3-fluorophenyl)(1H-imidazol-5-yl)methyl)pyridine]: the pEC50 was < 5.00.

The same assay, now with this note: RSAT; ratio of maximal effect to that of standard full agonist brimonidine (UK14304); value in brackets.
With `Fc1c(Cl)cccc1C(c1cccnc1)c1cnc[nH]1` (stereo not drawn) [3-((3-chloro-2-fluorophenyl)(1H-imidazol-5-yl)methyl)pyridine], the “Alpha 2C intrinsic activity (efficacy)” value is 0.55.
On the same count and under the same terms, as for `Cc1c(Cl)cccc1C(c1ccccn1)c1c[nH]cn1` (stereo not drawn), the figure is 0.53; as for `Cc1ccccc1C(c1cccnc1)c1c[nH]cn1` (stereo not drawn) [3-((2-methylphenyl)(1H-imidazol-5-yl)methyl)pyridine], 0.29.
`Cc1ccccc1C(c1ccccn1)c1c[nH]cn1` (stereo not drawn) [2-((2-methylphenyl)(1H-imidazol-5-yl)methyl)pyridine]: the “Alpha 2C intrinsic activity (efficacy)” value was 0.57.
The same measure, in the same setting: with `Cc1c(Cl)cccc1C(c1ccncc1)c1c[nH]cn1` (stereo not drawn) [4-((3-chloro-2-methylphenyl)(1H-imidazol-5-yl)methyl)pyridine] the figure was 0.46; with `Fc1cccc(C(c2cccnc2)c2c[nH]cn2)c1` (stereo not drawn) [3-((3-fluorophenyl)(1H-imidazol-5-yl)methyl)pyridine], 0.17; with `Fc1cccc(C(c2ccccn2)c2c[nH]cn2)c1` (stereo not drawn) [2-((3-fluorophenyl)(1H-imidazol-5-yl)methyl)pyridine], 0.25.
